Source: patent publication US7598245B2 (Vertex Pharmaceuticals Incorporated, priority 2003, dated 2009)
pKi: −log10 of the molar value. Values joined by “and” are separate entries in the source; they are usually repeats but may differ in a detail not shown here. Identical values can stand only once.

Columns and labels:
[1] = target: KDR (Homo sapiens, UniProt P35968); experiment: Inhibition of KDR, coupled enzyme assay; type: biochemical; conditions: 300 μM ATP, 37° C.
Method: Compounds were screened for their ability to inhibit KDR using a standard coupled enzyme assay (Fox et al., Protein Sci., (1998) 7, 2249). Assays were carried out in a mixture of 200 mM HEPES 7.5, 10 mM MgCl2, 25 mM NaCl, 1 mM DTT and 1.5% DMSO. Final substrate concentrations in the assay were 300 μM ATP (Sigma Chemicals) and 10 μM poly E4Y (Sigma). Assays were carried out at 37° C. and 30 nM KDR. Final concentrations of the components of the coupled enzyme system were 2.5 mM phosphoenolpyruvate, 200 μM NADH, 30 μg/ML pyruvate kinase and 10 μg/ml lactate dehydrogenase.
An assay stock buffer solution was prepared containing all of the reagents listed above, with the exception of ATP and the test compound of interest. 177 μl of the stock solution was placed in a 96 well plate followed by addition of 3 μl of 2 mM DMSO stock containing the test compound (final compound concentration 30 μM). The plate was preincubated for about 10 minutes at 37° C. and the reaction initiated by addition of 20 μl of ATP (final concentration 300 μM). Rates of reaction were obtained using a Molecular Devices plate reader (Sunnyvale, Calif.) over a 5 minute read time at 37° C.

[2] = target: T1, FLT-3 (Homo sapiens, UniProt P36888); experiment: Inhibition of FLT-3, radiometric filter-binding assay; type: biochemical; conditions: 90 μM ATP, pE4Y substrate; read-out: Ki values (FLT-3)
T1 construct: 0.02% BSA and 3 nM FLT-3
T1 sequence (P36888 27-993): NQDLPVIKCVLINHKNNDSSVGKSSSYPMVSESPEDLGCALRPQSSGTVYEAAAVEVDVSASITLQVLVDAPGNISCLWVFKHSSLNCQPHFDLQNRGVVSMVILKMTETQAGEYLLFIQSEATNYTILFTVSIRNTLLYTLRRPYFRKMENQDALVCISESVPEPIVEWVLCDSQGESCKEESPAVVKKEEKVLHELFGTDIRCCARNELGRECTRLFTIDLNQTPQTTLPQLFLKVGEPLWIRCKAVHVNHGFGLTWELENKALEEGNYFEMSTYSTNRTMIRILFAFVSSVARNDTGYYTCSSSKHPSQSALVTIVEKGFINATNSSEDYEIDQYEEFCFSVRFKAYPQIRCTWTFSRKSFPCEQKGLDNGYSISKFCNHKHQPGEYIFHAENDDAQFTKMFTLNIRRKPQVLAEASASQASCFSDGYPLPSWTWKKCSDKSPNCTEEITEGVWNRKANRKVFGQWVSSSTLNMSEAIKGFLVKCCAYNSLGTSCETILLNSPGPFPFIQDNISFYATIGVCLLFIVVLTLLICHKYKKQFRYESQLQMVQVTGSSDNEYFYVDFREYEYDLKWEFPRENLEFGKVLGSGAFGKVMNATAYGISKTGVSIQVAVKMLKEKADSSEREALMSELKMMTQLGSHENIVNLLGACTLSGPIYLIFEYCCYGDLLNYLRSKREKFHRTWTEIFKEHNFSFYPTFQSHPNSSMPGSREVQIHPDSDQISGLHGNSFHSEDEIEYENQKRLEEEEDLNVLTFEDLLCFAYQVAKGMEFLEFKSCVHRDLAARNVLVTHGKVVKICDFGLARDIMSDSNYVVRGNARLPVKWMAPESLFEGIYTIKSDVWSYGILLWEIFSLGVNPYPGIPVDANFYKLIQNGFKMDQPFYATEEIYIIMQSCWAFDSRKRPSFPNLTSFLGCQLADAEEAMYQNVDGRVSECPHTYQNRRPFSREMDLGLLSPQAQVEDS
Method: Compounds were screened for their ability to inhibit FLT-3 activity using a radiometric filter-binding assay. This assay monitors the ^33P incorporation into a substrate poly(Glu, Tyr) 4:1 (pE4Y). Reactions were carried out in a solution containing 100 mM HEPES (pH 7.5), 10 mM MgCl2, 25 mM NaCl, 1 mM DTT, 0.01% BSA and 2.5% DMSO. Final substrate concentrations in the assay were 90 μM ATP and 0.5 mg/mL pE4Y (both from Sigma Chemicals, St Louis, Mo.). The final concentration of compounds is generally between 0.01 and 5 μM. Typically, a 12-point titration was conducted by preparing serial dilutions from 10 mM DMSO stock of test compound. Reactions were carried out at room temperature.
Two assay solutions were prepared. Solution 1 contains 100 mM HEPES (pH 7.5), 10 mM MgCl2, 25 mM NaCl, 1 mg/ml pE4Y and 180 μM ATP (containing 0.3 μCi of [γ-^33P]ATP for each reaction). Solution 2 contains 100 mM HEPES (pH 7.5), 10 mM MgCl2, 25 mM NaCl, 2 mM DTT, 0.02% BSA and 3 nM FLT-3. The assay was run on a 96 well plate by mixing 50 μL each of Solution1 and 2.5 mL of the test compounds. The reaction was initiated with Solution2. After incubation for 20 minutes at room temperature, the reaction was stopped with 50 μL of 20% TCA containing 0.4 mM of ATP. All of the reaction volume was then transferred to a filter plate and washed with 5% TCA by a Harvester9600 from TOMTEC (Hamden, Conn.). The amount of ^33P incorporation into pE4y was analyzed by a Packard TopCount Microplate Scintillation Counter (Meriden, Conn.). The data was fitted using Prism software to get an IC50 or Ki.

KDR, sequence (P35968 20-1356): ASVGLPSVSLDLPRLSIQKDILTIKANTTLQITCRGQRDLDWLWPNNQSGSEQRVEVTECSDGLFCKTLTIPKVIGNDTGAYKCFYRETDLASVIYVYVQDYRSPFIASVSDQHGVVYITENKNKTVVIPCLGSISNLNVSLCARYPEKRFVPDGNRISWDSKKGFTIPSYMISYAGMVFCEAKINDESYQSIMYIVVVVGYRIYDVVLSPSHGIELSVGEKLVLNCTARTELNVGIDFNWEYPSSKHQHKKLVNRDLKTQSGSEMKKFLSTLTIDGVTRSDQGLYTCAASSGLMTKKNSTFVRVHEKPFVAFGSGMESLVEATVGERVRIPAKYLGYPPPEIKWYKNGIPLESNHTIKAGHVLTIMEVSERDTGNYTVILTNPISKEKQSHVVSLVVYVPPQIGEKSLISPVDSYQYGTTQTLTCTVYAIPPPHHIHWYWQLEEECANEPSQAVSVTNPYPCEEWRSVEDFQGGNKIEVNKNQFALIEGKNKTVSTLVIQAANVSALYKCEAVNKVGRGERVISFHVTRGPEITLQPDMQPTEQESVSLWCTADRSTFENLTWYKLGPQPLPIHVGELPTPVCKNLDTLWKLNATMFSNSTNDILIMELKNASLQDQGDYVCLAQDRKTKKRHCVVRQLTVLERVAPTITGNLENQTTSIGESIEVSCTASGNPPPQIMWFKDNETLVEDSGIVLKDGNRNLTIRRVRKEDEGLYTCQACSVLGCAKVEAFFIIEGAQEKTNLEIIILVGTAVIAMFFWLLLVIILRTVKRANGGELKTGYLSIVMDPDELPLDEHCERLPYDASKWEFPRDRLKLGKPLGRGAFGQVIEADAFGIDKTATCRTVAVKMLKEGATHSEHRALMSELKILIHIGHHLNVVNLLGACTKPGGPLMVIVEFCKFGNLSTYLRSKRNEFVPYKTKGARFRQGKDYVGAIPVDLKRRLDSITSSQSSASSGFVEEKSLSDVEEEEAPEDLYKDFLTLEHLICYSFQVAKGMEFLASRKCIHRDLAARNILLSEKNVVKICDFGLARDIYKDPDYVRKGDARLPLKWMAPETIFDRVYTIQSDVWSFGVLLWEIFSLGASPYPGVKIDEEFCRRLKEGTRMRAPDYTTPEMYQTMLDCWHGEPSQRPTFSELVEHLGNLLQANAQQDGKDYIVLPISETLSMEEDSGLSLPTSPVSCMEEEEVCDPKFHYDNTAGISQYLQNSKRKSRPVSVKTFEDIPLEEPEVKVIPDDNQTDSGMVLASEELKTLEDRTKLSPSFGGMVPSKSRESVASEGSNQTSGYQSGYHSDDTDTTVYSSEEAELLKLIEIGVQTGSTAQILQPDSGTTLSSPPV

| pKi [1] | pKi [2] | Compound |
| --- | --- | --- |
| > 7.00 | 7.52 to 9.00 | CC(=O)N1[C@H](C)CN(c2cc(-n3cnc(Nc4ccc(NC(=O)NC(C)C)cc4)n3)ccn2)C[C@@H]1C [Compound I-100] |
| 6.00 to 7.00 | 6.70 to 7.52 | CC(=O)N1[C@H](C)CN(c2cc(-n3cnc(Nc4ccc(NC(=O)NC(C)(C)C)cc4)n3)ccn2)C[C@@H]1C [Compound I-101] |
| 6.00 to 7.00 | 7.52 to 9.00 | CC(C)(C)CC(=O)Nc1cc(-n2cnc(Nc3ccccc3)n2)ccn1 [Compound I-102] |
| 6.00 to 7.00 | 7.52 to 9.00 | c1ccc(-n2cnc(Nc3ccnc(N4CCOCC4)c3)n2)cc1 [Compound I-105] |
| 6.00 to 7.00 | 6.70 to 7.52 | c1ccc(-n2cnc(Nc3ccc(N4CCOCC4)cc3)n2)cc1 [Compound I-106] |
| < 6.00 | 6.70 to 7.52 | c1ccc(-n2cnc(Nc3ccnc(NCCN4CCOCC4)c3)n2)cc1 [Compound I-107] |
| 6.00 to 7.00 | 6.70 to 7.52 and < 6.70 | c1ccc(-n2cnc(Nc3ccc(N4CCOCC4)nc3)n2)cc1 [Compound I-134] |

Further lines, the compound ahead of its results:

| Compound | pKi [1] | pKi [2] |
| --- | --- | --- |
| CC(=O)N1[C@H](C)CN(c2cc(-n3cnc(Nc4ccc(N)cc4)n3)ccn2)C[C@@H]1C [Compound I-82] | > 7.00 | > 7.22 |
| CC(=O)N1[C@H](C)CN(c2cc(-n3cnc(Nc4ccc(N5CCOCC5)cc4)n3)ccn2)C[C@@H]1C [Compound I-85, 1-(2,6-Dimethyl-4-{4-[3-(4-morpholin-4-yl-phenylamino)-[1,2,4]triazol-1-yl]-pyridin-2-yl}-piperazin-1-yl)-ethanone] | 6.00 to 7.00 | 6.70 to 7.52 |
| CCCOC(=O)Nc1ccc(Nc2ncn(-c3ccnc(N4C[C@@H](C)N(C(C)=O)[C@@H](C)C4)c3)n2)cc1 [Compound I-88] | 6.00 to 7.00 | 6.70 to 7.52 |
| CC(=O)N1[C@H](C)CN(c2cc(-n3cnc(Nc4ccc(NC(=O)OC(C)C)cc4)n3)ccn2)C[C@@H]1C [Compound I-89] | 6.00 to 7.00 | 6.70 to 7.52 |
| CC(=O)N1[C@H](C)CN(c2cc(-n3cnc(Nc4ccc(NC(=O)OCC(C)C)cc4)n3)ccn2)C[C@@H]1C [Compound I-90] | 6.00 to 7.00 | 6.70 to 7.52 |
| CC(=O)N1[C@H](C)CN(c2cc(-n3cnc(Nc4ccc(NC(=O)OCC(C)(C)C)cc4)n3)ccn2)C[C@@H]1C [Compound I-91] | 6.00 to 7.00 | 6.70 to 7.52 |
| CC(=O)N1[C@H](C)CN(c2cc(-n3cnc(Nc4ccc(N5CCN(S(=O)(=O)c6ccc(C)cc6)CC5)cc4)n3)ccn2)C[C@@H]1C [Compound I-92] | > 7.00 | 6.70 to 7.52 |
| O=C(CC1CCCC1)Nc1cc(-n2cnc(Nc3ccccc3)n2)ccn1 [Compound I-94, 2-Cyclopentyl-N-[4-(3-phenylamino-[1,2,4]triazol-1-yl)-pyridin-2-yl]-acetamide] | 6.00 to 7.00 | 7.52 to 9.00 |
| O=C(CCc1ccccc1)Nc1cc(-n2cnc(Nc3ccccc3)n2)ccn1 [Compound I-95] | 6.00 to 7.00 | 7.52 to 9.00 |
| O=C(Cc1ccccc1)Nc1cc(-n2cnc(Nc3ccccc3)n2)ccn1 [Compound I-96] | 6.00 to 7.00 | 7.52 to 9.00 |
| CC(=O)N1[C@H](C)CN(c2cc(-n3cnc(Nc4ccc(N5CCN(C(=O)OC(C)(C)C)CC5)cc4)n3)ccn2)C[C@@H]1C [Compound I-97, 4-(4-{1-[2-(4-Acetyl-3,5-dimethyl-piperazin-1-yl)-pyridin-4-yl]-1H-[1,2,4]triazol-3-ylamino}-phenyl)-piperazine-1-carboxylic acid tert-butyl ester] | > 7.00 | 7.52 to 9.00 |
| CCNC(=O)Nc1ccc(Nc2ncn(-c3ccnc(N4C[C@@H](C)N(C(C)=O)[C@@H](C)C4)c3)n2)cc1 [Compound I-98, 1-(4-{1-[2-(4-Acetyl-3,5-dimethyl-piperazin-1-yl)-pyridin-4-yl]-1H-[1,2,4]triazol-3-ylamino}-phenyl)-3-ethyl-urea] | > 7.00 | 7.52 to 9.00 |
| CCCNC(=O)Nc1ccc(Nc2ncn(-c3ccnc(N4C[C@@H](C)N(C(C)=O)[C@@H](C)C4)c3)n2)cc1 [Compound I-99] | > 7.00 | 7.52 to 9.00 |
